From ChEMBL document CHEMBL1201862, “PubChem BioAssay data set” (2004)
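Each compound was tested at five concentrations against cells in 96-well plates for 48 hours. GI50 marks 50% less growth.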 Activity calls are given as the source filed them. Cut-off read from the data, not from the text of the source: active = GI50 up to about 1.1 µM and inactive = higher.

Key:
Test in all cases: DTP human tumour cell line panel, 48 h
TK-10 = system: TK-10
SK-OV-3 = system: SK-OV-3
NCI-H23 = system: NCI-H23
OVCAR-8 = system: OVCAR-8
RPMI-8226 = system: RPMI-8226
SK-MEL-5 = system: SK-MEL-5
K562 = system: K562
786-0 = system: 786-0
UO-31 = system: UO-31
MDA-MB-435 = system: MDA-MB-435
RXF 393 = system: RXF 393
CCRF-CEM = system: CCRF-CEM
T47D = system: T47D
NCI-H460 = system: NCI-H460
Hs-578T = system: Hs-578T
ACHN = system: ACHN
SK-MEL-2 = system: SK-MEL-2
NCI/ADR-RES = system: NCI/ADR-RES
PC-3 = system: PC-3
NCI-H226 = system: NCI-H226

Compound | GI50 (TK-10) | GI50 (SK-OV-3) | GI50 (NCI-H23) | GI50 (OVCAR-8) | GI50 (RPMI-8226) | GI50 (SK-MEL-5) | GI50 (K562) | GI50 (786-0) | GI50 (UO-31) | GI50 (MDA-MB-435) | GI50 (RXF 393) | GI50 (CCRF-CEM) | GI50 (T47D) | GI50 (NCI-H460) | GI50 (Hs-578T) | GI50 (ACHN) | GI50 (SK-MEL-2) | GI50 (NCI/ADR-RES) | GI50 (PC-3) | GI50 (NCI-H226)
CCOC(=O)C(=CNc1ccc(NC2=NCC(C)S2)cc1)C(=O)OCC (stereo not given) | 46.1 µM (inactive) | 60 µM (inactive) | 28.1 µM (inactive) | 24.5 µM (inactive) | 9.48 µM (inactive) | 16.5 µM (inactive) | 0.382 µM (active) | 26.1 µM (inactive) | 17.8 µM (inactive) | 20.2 µM (inactive) | 30.5 µM (inactive) | 0.0908 µM (active) | 24.8 µM (inactive) | 31.6 µM (inactive) | 25.5 µM (inactive) | 18.7 µM (inactive) | 19.7 µM (inactive) | 23.1 µM (inactive) | 16.1 µM (inactive) | 42.4 µM (inactive)
Oc1ccc2ccccc2c1-c1nnc(CCCCCCCCc2nnc(-c3c(O)ccc4ccccc34)o2)o1 | 9.42 µM (inactive) | 18.1 µM (inactive) | 5.21 µM (inactive) | 2.18 µM (inactive) | 2.72 µM (inactive) | 0.838 µM (active) | 0.955 µM (active) | 1.1 µM (active) | 0.389 µM (active) | 4.24 µM (inactive) | 3.48 µM (inactive) | 0.448 µM (active) | 4 µM (inactive) | 0.955 µM (active) | > 84.9 µM (inactive) | 0.741 µM (active) | 5.87 µM (inactive) | 1.44 µM (inactive) | 1.98 µM (inactive) | 10.4 µM (inactive)
CN1CCN(CC(=O)N2c3ccccc3Sc3cc4ccccc4cc32)CC1 | 15.7 µM (inactive) | 16.1 µM (inactive) | 19.7 µM (inactive) | 17.5 µM (inactive) | 14.6 µM (inactive) | 17.5 µM (inactive) | 15.9 µM (inactive) | 13.3 µM (inactive) | 13.2 µM (inactive) | 11.4 µM (inactive) | 12.9 µM (inactive) | 26 µM (inactive) | 19.7 µM (inactive) | 16 µM (inactive) | 11 µM (inactive) | 16.4 µM (inactive) | 17.5 µM (inactive) | 16.1 µM (inactive) | 14.3 µM (inactive) | 22.7 µM (inactive)
CC(C)NCC(O)c1cc(OCc2ccccc2)c(OCc2ccccc2)cc1NC(=O)CCC(=O)O (stereo not given) | 7.53 µM (inactive) | 14.9 µM (inactive) | 13.2 µM (inactive) | 7.66 µM (inactive) | 2.81 µM (inactive) | 2.1 µM (inactive) | 1.92 µM (inactive) | 7.52 µM (inactive) | 5.77 µM (inactive) | 5.05 µM (inactive) | 5.36 µM (inactive) | 2.58 µM (inactive) | 10 µM (inactive) | 1.85 µM (inactive) | 11.6 µM (inactive) | 3.18 µM (inactive) | 1.45 µM (inactive) | 12.9 µM (inactive) | 9.02 µM (inactive) | 15.7 µM (inactive)
O=C(c1cc(Cl)cc(Cl)c1)N(Cc1cccnc1)C(=S)N(Cc1cccnc1)C(=O)c1cc(Cl)cc(Cl)c1 | 31.3 µM (inactive) | > 100 µM (inactive) | 63.1 µM (inactive) | 28.8 µM (inactive) | 4.37 µM (inactive) | 23.3 µM (inactive) | 24.4 µM (inactive) | 17.3 µM (inactive) | 24.8 µM (inactive) | 85.9 µM (inactive) | 34.2 µM (inactive) | 17.1 µM (inactive) | 44.7 µM (inactive) | 64.3 µM (inactive) | 60.8 µM (inactive) | 22.5 µM (inactive) | 31.7 µM (inactive) | 37.4 µM (inactive) | 18.4 µM (inactive) | 52.1 µM (inactive)
COc1cccc2c1C1(O)C2CCCCCCCCCC12OCCCO2 (stereo not given) | 49.7 µM (inactive) | > 45.3 µM (inactive) | > 58.6 µM (inactive) | > 41.8 µM (inactive) | 7.29 µM (inactive) | 21.6 µM (inactive) | 6.19 µM (inactive) | 32.7 µM (inactive) | > 43.3 µM (inactive) | 24.6 µM (inactive) | > 100 µM (inactive) | 8.32 µM (inactive) | 23.4 µM (inactive) | 6.25 µM (inactive) | > 100 µM (inactive) | > 35.2 µM (inactive) | > 40.5 µM (inactive) | > 100 µM (inactive) | 6.44 µM (inactive) | > 47.9 µM (inactive)
Cc1nc(C)c(N2CCN(S(=O)(=O)N(Cc3ccccc3)Cc3ccccc3)CC2)c(O)n1 | 33.6 µM (inactive) | 7.76 µM (inactive) | 14.3 µM (inactive) | 4.78 µM (inactive) | > 100 µM (inactive) | > 100 µM (inactive) | > 100 µM (inactive) | 6.64 µM (inactive) | > 100 µM (inactive) | > 100 µM (inactive) | 11.2 µM (inactive) | > 100 µM (inactive) | 24.1 µM (inactive) | > 46.9 µM (inactive) | 3.4 µM (inactive) | 28.6 µM (inactive) | 26.7 µM (inactive) | > 61.4 µM (inactive) | 41.8 µM (inactive) | 0.279 µM (active)
COC(=O)C1CCC(=O)N1C(c1ccc(OC)cc1)c1cc(OC)c(OC)c(OC)c1 (stereo not given) | > 37.8 µM (inactive) | 0.968 µM (active) | 0.553 µM (active) | 0.348 µM (active) | 0.239 µM (active) | 0.252 µM (active) | 0.256 µM (active) | 0.507 µM (active) | 1.19 µM (inactive) | 0.057 µM (active) | 0.0545 µM (active) | 0.311 µM (active) | > 100 µM (inactive) | 0.33 µM (active) | 0.184 µM (active) | 0.52 µM (active) | 0.649 µM (active) | 0.258 µM (active) | 0.288 µM (active) | 0.324 µM (active)
O=c1[nH]ncc2[nH]c3c(c12)CCCc1ccccc1-3 | 50.1 µM (inactive) | 28.6 µM (inactive) | 40.6 µM (inactive) | 53.6 µM (inactive) | 27.8 µM (inactive) | 22.4 µM (inactive) | 12.9 µM (inactive) | 33 µM (inactive) | 43.4 µM (inactive) | 25.7 µM (inactive) | 15.1 µM (inactive) | 39.9 µM (inactive) | 46.9 µM (inactive) | 29.7 µM (inactive) | 5.53 µM (inactive) | 32.8 µM (inactive) | 34.9 µM (inactive) | 37.9 µM (inactive) | 64.1 µM (inactive) | 38.7 µM (inactive)
COc1ccc(Cn2c3c(cc(OS(=O)(=O)C(F)(F)F)c2=O)Cc2ccccc2-3)cc1 | 22.3 µM (inactive) | 25.1 µM (inactive) | 19.7 µM (inactive) | 13.3 µM (inactive) | 32.8 µM (inactive) | 10.4 µM (inactive) | 21.5 µM (inactive) | 4.89 µM (inactive) | 7.33 µM (inactive) | 19.3 µM (inactive) | 29.9 µM (inactive) | 6.27 µM (inactive) | 32.3 µM (inactive) | 3.56 µM (inactive) | > 50 µM (inactive) | 21.6 µM (inactive) | 45.6 µM (inactive) | 2.29 µM (inactive) | > 50 µM (inactive) | 26.7 µM (inactive)
COc1cc(C(=O)O)ccc1OS(=O)(=O)O | > 100 µM (inactive) | > 100 µM (inactive) | > 100 µM (inactive) | > 100 µM (inactive) | > 100 µM (inactive) | > 100 µM (inactive) | > 100 µM (inactive) | > 100 µM (inactive) | > 100 µM (inactive) | > 100 µM (inactive) | 30.3 µM (inactive) | > 100 µM (inactive) | > 100 µM (inactive) | > 100 µM (inactive) | > 100 µM (inactive) | > 100 µM (inactive) | > 100 µM (inactive) | > 100 µM (inactive) | > 100 µM (inactive) | > 100 µM (inactive)
COc1ccc(NC(=S)NN=C(C)c2cccc(C(C)=NNC(=S)Nc3ccc(OC)cc3)n2)cc1 | 58.2 µM (inactive) | 21.4 µM (inactive) | 64 µM (inactive) | 9.51 µM (inactive) | > 100 µM (inactive) | 0.995 µM (active) | 31.3 µM (inactive) | 14.7 µM (inactive) | 6.65 µM (inactive) | 85.5 µM (inactive) | > 100 µM (inactive) | 3.33 µM (inactive) | > 100 µM (inactive) | 12.4 µM (inactive) | > 100 µM (inactive) | 4.74 µM (inactive) | > 100 µM (inactive) | 8.59 µM (inactive) | 27.2 µM (inactive) | 47.9 µM (inactive)
Nc1nc(Cl)cc(NCC2CC(O)(CO)C2)n1 (stereo not given) | > 100 µM (inactive) | > 100 µM (inactive) | > 100 µM (inactive) | > 100 µM (inactive) | > 100 µM (inactive) | > 100 µM (inactive) | > 100 µM (inactive) | > 100 µM (inactive) | > 100 µM (inactive) | > 100 µM (inactive) | > 100 µM (inactive) | > 100 µM (inactive) | > 100 µM (inactive) | > 100 µM (inactive) | > 100 µM (inactive) | > 100 µM (inactive) | > 100 µM (inactive) | > 100 µM (inactive) | > 100 µM (inactive) | > 100 µM (inactive)
CC(=O)[C@]1(O)Cc2c(O)c3c(c(O)c2C(OC2OC(C)C(O)C(O)C2F)C1)C(=O)c1ccccc1C3=O (stereo not given in full) | 0.197 µM (active) | 0.135 µM (active) | 0.0371 µM (active) | 0.0238 µM (active) | < 0.0299 µM (active) | 0.0516 µM (active) | 0.083 µM (active) | 0.0288 µM (active) | < 0.01 µM (active) | 0.371 µM (active) | 0.624 µM (active) | < 0.0141 µM (active) | 0.0395 µM (active) | < 0.01 µM (active) | 0.33 µM (active) | 0.0107 µM (active) | 0.828 µM (active) | 0.318 µM (active) | 0.316 µM (active) | 0.0265 µM (active)
